# Laboratory results published in ChEMBL document CHEMBL1201862, “PubChem BioAssay data set” (2004).
#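 How tested: cells in 96-well plates exposed to compound for 48 hours at five concentrations. At the GI50, growth is halved.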 Calls of active or inactive are those of the source. Rule as the data show it: active = GI50 up to about 1.1 µM and inactive = higher.
# Experiments:
# Test in all cases: NCI tumour cell line growth inhibition, 48 h
# KM12 = test system: KM12
# M14 = test system: M14
# UACC-257 = test system: UACC-257
# TK-10 = test system: TK-10
# PC-3 = test system: PC-3
# SR = test system: SR
# HL-60 = test system: HL-60
# NCI/ADR-RES = test system: NCI/ADR-RES
# HOP-92 = test system: HOP-92
# NCI-H226 = test system: NCI-H226
# UACC-62 = test system: UACC-62
# UO-31 = test system: UO-31
# SF-539 = test system: SF-539
# SK-MEL-5 = test system: SK-MEL-5
# HT-29 = test system: HT-29
# HCT-116 = test system: HCT-116
# MDA-N = test system: MDA-N
# SK-MEL-2 = test system: SK-MEL-2
# SN12C = test system: SN12C
# RXF 393 = test system: RXF 393
# NCI-H23 = test system: NCI-H23
# SF-268 = test system: SF-268
# EKVX = test system: EKVX
# DU-145 = test system: DU-145
# COLO 205 = test system: COLO 205
# MCF7 = test system: MCF7
# CAKI-1 = test system: CAKI-1
# NCI-H460 = test system: NCI-H460
# A549 = test system: A549
# ACHN = test system: ACHN
# CCRF-CEM = test system: CCRF-CEM
# RPMI-8226 = test system: RPMI-8226
# MDA-MB-231 = test system: MDA-MB-231
# SNB-19 = test system: SNB-19
# MOLT-4 = test system: MOLT-4
# NCI-H522 = test system: NCI-H522
# SW-620 = test system: SW-620
# MDA-MB-435 = test system: MDA-MB-435
# SNB-75 = test system: SNB-75
# OVCAR-5 = test system: OVCAR-5
# IGROV-1 = test system: IGROV-1
# U-251 = test system: U-251
# Malme-3M = test system: Malme-3M
# BT-549 = test system: BT-549
# HCT-15 = test system: HCT-15
# SF-295 = test system: SF-295
# T47D = test system: T47D
# Hs-578T = test system: Hs-578T
# K562 = test system: K562
# 786-0 = test system: 786-0
# OVCAR-8 = test system: OVCAR-8
# SK-OV-3 = test system: SK-OV-3
# OVCAR-4 = test system: OVCAR-4
# SK-MEL-28 = test system: SK-MEL-28
# HOP-62 = test system: HOP-62
# OVCAR-3 = test system: OVCAR-3
# LOX IMVI = test system: LOX IMVI
# A498 = test system: A498
smiles,measurement,setting,value
COC(CNC(=O)CNC(=O)c1ccc(C(F)(F)F)cc1)OC,GI50,KM12,> 100 µM (inactive)
same,GI50,M14,> 100 µM (inactive)
same,GI50,UACC-257,> 100 µM (inactive)
same,GI50,TK-10,> 100 µM (inactive)
same,GI50,PC-3,> 100 µM (inactive)
same,GI50,SR,> 100 µM (inactive)
same,GI50,HL-60,> 100 µM (inactive)
same,GI50,NCI/ADR-RES,> 100 µM (inactive)
same,GI50,HOP-92,> 100 µM (inactive)
same,GI50,NCI-H226,> 100 µM (inactive)
same,GI50,UACC-62,> 100 µM (inactive)
same,GI50,UO-31,> 100 µM (inactive)
same,GI50,SF-539,> 100 µM (inactive)
same,GI50,SK-MEL-5,> 100 µM (inactive)
same,GI50,HT-29,> 100 µM (inactive)
same,GI50,HCT-116,> 100 µM (inactive)
same,GI50,MDA-N,> 100 µM (inactive)
same,GI50,SK-MEL-2,> 100 µM (inactive)
same,GI50,SN12C,> 100 µM (inactive)
same,GI50,RXF 393,> 100 µM (inactive)
same,GI50,NCI-H23,> 100 µM (inactive)
same,GI50,SF-268,> 100 µM (inactive)
same,GI50,EKVX,> 100 µM (inactive)
same,GI50,DU-145,> 100 µM (inactive)
same,GI50,COLO 205,> 100 µM (inactive)
same,GI50,MCF7,> 100 µM (inactive)
same,GI50,CAKI-1,> 100 µM (inactive)
same,GI50,NCI-H460,> 100 µM (inactive)
same,GI50,A549,> 100 µM (inactive)
same,GI50,ACHN,> 100 µM (inactive)
same,GI50,CCRF-CEM,> 100 µM (inactive)
same,GI50,RPMI-8226,> 100 µM (inactive)
same,GI50,MDA-MB-231,> 100 µM (inactive)
same,GI50,SNB-19,47.9 µM (inactive)
same,GI50,MOLT-4,> 100 µM (inactive)
same,GI50,NCI-H522,> 100 µM (inactive)
same,GI50,SW-620,> 100 µM (inactive)
same,GI50,MDA-MB-435,> 100 µM (inactive)
same,GI50,SNB-75,> 100 µM (inactive)
same,GI50,OVCAR-5,> 100 µM (inactive)
same,GI50,IGROV-1,> 100 µM (inactive)
same,GI50,U-251,> 100 µM (inactive)
same,GI50,Malme-3M,> 100 µM (inactive)
same,GI50,BT-549,> 100 µM (inactive)
same,GI50,HCT-15,> 100 µM
same,GI50,SF-295,> 100 µM (inactive)
same,GI50,T47D,> 100 µM (inactive)
same,GI50,Hs-578T,> 100 µM (inactive)
same,GI50,K562,> 100 µM (inactive)
same,GI50,786-0,> 100 µM (inactive)
same,GI50,OVCAR-8,> 100 µM (inactive)
same,GI50,SK-OV-3,> 100 µM (inactive)
O=CC(O)C(O)C(O)C1CNC(=S)O1 (centres undefined),GI50,KM12,> 100 µM (inactive)
same,GI50,M14,> 100 µM (inactive)
same,GI50,UACC-257,> 100 µM (inactive)
same,GI50,TK-10,> 100 µM (inactive)
same,GI50,PC-3,> 100 µM (inactive)
same,GI50,OVCAR-4,> 100 µM (inactive)
same,GI50,SR,> 100 µM (inactive)
same,GI50,HL-60,> 100 µM (inactive)
same,GI50,NCI/ADR-RES,> 100 µM (inactive)
same,GI50,HOP-92,> 100 µM (inactive)
same,GI50,NCI-H226,> 100 µM (inactive)
same,GI50,UACC-62,> 100 µM (inactive)
same,GI50,UO-31,> 100 µM (inactive)
same,GI50,SF-539,> 100 µM (inactive)
same,GI50,SK-MEL-5,> 100 µM (inactive)
same,GI50,HT-29,> 100 µM (inactive)
same,GI50,HCT-116,> 100 µM (inactive)
same,GI50,SK-MEL-28,> 100 µM (inactive)
same,GI50,MDA-N,> 100 µM (inactive)
same,GI50,SK-MEL-2,> 100 µM (inactive)
same,GI50,SN12C,> 100 µM (inactive)
same,GI50,RXF 393,> 100 µM (inactive)
same,GI50,NCI-H23,> 100 µM (inactive)
same,GI50,SF-268,> 100 µM (inactive)
same,GI50,EKVX,> 100 µM (inactive)
same,GI50,DU-145,> 100 µM (inactive)
same,GI50,COLO 205,> 100 µM (inactive)
same,GI50,MCF7,> 100 µM (inactive)
same,GI50,CAKI-1,> 100 µM (inactive)
same,GI50,NCI-H460,> 100 µM (inactive)
same,GI50,A549,> 100 µM (inactive)
same,GI50,ACHN,> 100 µM (inactive)
same,GI50,CCRF-CEM,> 100 µM (inactive)
same,GI50,RPMI-8226,> 100 µM (inactive)
same,GI50,MDA-MB-231,> 100 µM (inactive)
same,GI50,MOLT-4,> 100 µM (inactive)
same,GI50,NCI-H522,> 100 µM (inactive)
same,GI50,SW-620,> 100 µM (inactive)
same,GI50,MDA-MB-435,> 100 µM (inactive)
same,GI50,SNB-75,> 100 µM (inactive)
same,GI50,OVCAR-5,> 100 µM (inactive)
same,GI50,IGROV-1,> 100 µM (inactive)
same,GI50,HOP-62,> 100 µM (inactive)
same,GI50,U-251,> 100 µM (inactive)
same,GI50,Malme-3M,> 100 µM (inactive)
same,GI50,OVCAR-3,> 100 µM (inactive)
same,GI50,LOX IMVI,> 100 µM (inactive)
same,GI50,BT-549,> 100 µM (inactive)
same,GI50,HCT-15,> 100 µM
same,GI50,SF-295,> 100 µM (inactive)
same,GI50,T47D,> 100 µM (inactive)
same,GI50,Hs-578T,> 100 µM (inactive)
same,GI50,K562,> 100 µM (inactive)
same,GI50,786-0,> 100 µM (inactive)
same,GI50,OVCAR-8,> 100 µM (inactive)
same,GI50,SK-OV-3,> 100 µM (inactive)
same,GI50,A498,> 100 µM (inactive)
